From patent US20260242415A1 (priority 2022, published 2026)

Legend:
[1] = tested on: SARS2-S pseudotyped VSV, Alpha
[2] = tested on: SARS2-S pseudotyped VSV, Beta
[3] = tested on: SARS2-S pseudotyped VSV, Delta
[4] = tested on: SARS2-S pseudotyped VSV, Omicron BA.1
[5] = tested on: SARS2-S pseudotyped VSV, Omicron BA.2
SARS-CoV-2 spike protein = SARS-CoV-2 spike protein (Severe acute respiratory syndrome coronavirus 2, UniProt P0DTC2); type: binding; set-up: key: Results labeled “−” represent decreased binding; Results labeled “0” represent substantially similar binding; Results labeled “1” represent the original sequence; Results labeled “+” represent about 105-200% binding; Results labeled “++” represent about 200-300% binding; Results labeled “+++” represent about 300-500% binding; Results labeled “++++” represent over about 500% binding
omicron variant = settings: cited from earlier work

Compound	binding standardized to SEQ ID NO: 1 (SARS-CoV-2 spike protein)	other results
CC[C@H](C)[C@@H]1NC(=O)[C@H](CCC(N)=O)NC(=O)[C@H](CCC(=O)O)NC(=O)[C@H](CCCNC(=N)N)NC(=O)[C@@H]2CCCN2C(=O)[C@H](CCCNC(=N)N)NC(=O)[C@H](CCCNC(=N)N)NC(=O)[C@H](Cc2ccc(O)cc2)NC(=O)CSC[C@@H](C(=O)NCC(N)=O)NC(=O)[C@H](Cc2ccccc2)NC(=O)[C@H](C(C)C)NC(=O)[C@H](Cc2c[nH]c3ccccc23)NC(=O)[C@H](CC(C)C)NC(=O)[C@H](CO)NC(=O)CNC(=O)[C@H]([C@@H](C)CC)NC(=O)[C@H]([C@@H](C)CC)NC1=O [Compound S1b3inL1]		IC50 [1]: 2600 nM; IC50 [2]: 5.2 µM; IC50 [3]: 3.5 µM; IC50 [4]: 5.2 µM; IC50 [5]: 3.5 µM
ARPREQIIIGSLWVF [SEQ ID NO: 16]	−	
RAPREQIIIGSLWVF [SEQ ID NO: 17]	−	
RRPAEQIIIGSLWVF [SEQ ID NO: 19]	0	
RRPREQAIIGSLWVF [SEQ ID NO: 22]	−	
RRPREQIAIGSLWVF [SEQ ID NO: 23]	−	
RRPREQIIAGSLWVF [SEQ ID NO: 24]	−	
RRPREQIIIASLWVF [SEQ ID NO: 25]	−	
RRPREQIIIGALWVF [SEQ ID NO: 26]	−	
RRPREQIIIGSAWVF [SEQ ID NO: 27]	−	
RRPREQIIIGSLAVF [SEQ ID NO: 28]	−	
RRPREQIIIGSLWVF [Compound S1b3inL1]	1	
Sotrovimab		fold loss in potency / decrease in activity against omicron (omicron variant): 3 fold
